Results as given in patent publication EP4428121A1, “MODULATORS OF SORTILIN ACTIVITY” (Vesper Bio Aps, priority 2023, dated 2024).

Target: T1, Human (6-His)Sortilin (Homo sapiens, UniProt Q99523)
T1 construct: purchased RnD Systems
T1 sequence (Q99523 78-755 limits assumed): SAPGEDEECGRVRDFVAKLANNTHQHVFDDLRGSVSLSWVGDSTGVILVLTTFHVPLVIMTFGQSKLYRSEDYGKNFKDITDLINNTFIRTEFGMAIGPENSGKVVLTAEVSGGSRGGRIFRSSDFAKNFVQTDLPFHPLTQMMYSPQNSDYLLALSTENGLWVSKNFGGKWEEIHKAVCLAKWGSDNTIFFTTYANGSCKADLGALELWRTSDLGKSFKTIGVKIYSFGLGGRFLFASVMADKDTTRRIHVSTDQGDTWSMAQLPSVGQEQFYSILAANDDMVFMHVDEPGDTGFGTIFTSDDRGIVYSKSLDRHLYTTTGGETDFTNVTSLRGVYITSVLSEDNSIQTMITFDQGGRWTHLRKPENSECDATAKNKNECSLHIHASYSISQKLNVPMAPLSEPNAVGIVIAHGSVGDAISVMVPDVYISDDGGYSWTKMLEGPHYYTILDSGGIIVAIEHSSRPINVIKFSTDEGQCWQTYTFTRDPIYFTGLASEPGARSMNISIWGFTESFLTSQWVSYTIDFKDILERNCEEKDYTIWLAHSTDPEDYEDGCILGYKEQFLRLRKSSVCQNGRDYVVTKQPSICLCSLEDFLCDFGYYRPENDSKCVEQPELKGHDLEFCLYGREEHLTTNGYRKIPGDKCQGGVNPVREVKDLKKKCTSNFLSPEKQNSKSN
Assay: Human Sortilin GCI (Grating-Coupled Interferometry) binding assay
Conditions: Creoptix WAVE-RAPID, single concentration (usually 1 µM, 10 µM or 100 µM), immobilised Human (6-His)Sortilin, 1:1 kinetic binding model

| Compound | Kd [µM] |
| --- | --- |
| CC(C)(C)CCC(Nc1cnc2ccccc2c1)c1nn[nH]n1 (racemic) [Example 33, [4,4-dimethyl-1-(2H-tetraazol-5-yl)pentyl]-3-quinolylamine] | 3.43 |
| CC(C)(C)CCC(Nc1ccc2ccccc2n1)c1nn[nH]n1 (racemic) [Example 34, [4,4-dimethyl-1-(2H-tetraazol-5-yl)pentyl]-2-quinolylamine] | 1.83 |
| CC(C)(C)CCC(Nc1cccc2ccccc12)c1nn[nH]n1 (racemic) [Example 35, [4,4-dimethyl-1-(2H-tetraazol-5-yl)pentyl]-1-naphthylamine] | 1.07 |
| CC(C)CCC(Nc1cccc2ccccc12)c1nn[nH]n1 (racemic) [Example 38, [4-methyl-1-(2H-tetraazol-5-yl)pentyl]-1-naphthylamine] | 8.75 |
| CC(C)CC(Nc1ccc2ccccc2n1)c1nn[nH]n1 (racemic) [Example 40, [3-methyl-1-(2H-tetraazol-5-yl)butyl]-2-quinolylamine] | 22 |
| CC(C)CC(Nc1cc2ccccc2cn1)c1nn[nH]n1 (racemic) [Example 42, [3-methyl-1-(2H-tetraazol-5-yl)butyl]-3-isoquinolylamine] | 3.17 |
| CC(C)(C)CC(Nc1ccccc1)c1nn[nH]n1 (racemic) [Example 43, N-phenyl[3,3-dimethyl-1-(2H-tetraazol-5-yl)butyl]amine] | 17.7 |
| CC(C)(C)CC(Nc1ncccn1)c1nn[nH]n1 (racemic) [Example 45, N-2-pyrimidinyl[3,3-dimethyl-1-(2H-tetraazol-5-yl)butyl]amine] | 91.1 |
| CC(C)CC(Nc1cncc2ccccc12)c1nn[nH]n1 (racemic) [Example 46, [3-methyl-1-(2H-tetraazol-5-yl)butyl]-4-isoquinolylamine] | 3.78 |
| CC(C)(C)CCC(Nc1ncccn1)c1nn[nH]n1 (racemic) [Example 47, N-2-pyrimidinyl[4,4-dimethyl-1-(2H-tetraazol-5-yl)pentyl]amine] | 7.82 |
| CC(C)(C)CC(Nc1cncc2ccccc12)c1nn[nH]n1 (racemic) [Example 48, [3,3-dimethyl-1-(2H-tetraazol-5-yl)butyl]-4-isoquinolylamine] | 2.47 |
| CC(C)CC(Nc1cncnc1)c1nn[nH]n1 (racemic) [Example 49, [3-methyl-1-(2H-tetraazol-5-yl)butyl]-5-pyrimidinylamine] | 98 |
| CC(C)(C)CC(Nc1cncnc1)c1nn[nH]n1 (racemic) [Example 50, N-5-pyrimidinyl[3,3-dimethyl-1-(2H-tetraazol-5-yl)butyl]amine] | 28 |
| Cn1ccc2cc(NC(CC(C)(C)C)c3nn[nH]n3)cnc21 (racemic) [Example 52, [3,3-dimethyl-1-(2H-tetraazol-5-yl)butyl](1-methyl-1H-1,7-diazainden-5-yl)amine] | 3.25 |
| Cn1ccc2cc(NC(CCC(C)(C)C)c3nn[nH]n3)cnc21 (racemic) [Example 53, [4,4-dimethyl-1-(2H-tetraazol-5-yl)pentyl](1-methyl-1H-1,7-diazainden-5-yl)amine] | 0.735 |
| CC(C)CCC(Nc1cnc2ccccc2c1)c1nn[nH]n1 (racemic) [Example 55, [4-methyl-1-(2H-tetraazol-5-yl)pentyl]-3-quinolylamine] | 10.5 |
| CC(C)CC(Nc1cnc2ccccc2c1)c1nn[nH]n1 (racemic) [Example 56, [3-methyl-1-(2H-tetraazol-5-yl)butyl]-3-quinolylamine] | 44.9 |
| CC(C)CCC(Nc1ncccn1)c1nn[nH]n1 (racemic) [Example 57, N-2-pyrimidinyl[4-methyl-1-(2H-tetraazol-5-yl)pentyl]amine] | 123 |
| CC(C)(C)CC(Nc1cc2ccccc2cn1)c1nn[nH]n1 (racemic) [Example 60, [3,3-dimethyl-1-(2H-tetraazol-5-yl)butyl]-3-isoquinolylamine] | 5.9 |
| CC(C)(C)CC(Nc1ccccn1)c1nn[nH]n1 (racemic) [Example 61, N-2-pyridyl[3,3-dimethyl-1-(2H-tetraazol-5-yl)butyl]amine] | 60 |
| CC(C)(C)CC(Nc1cccnc1)c1nn[nH]n1 (racemic) [Example 62, N-3-pyridyl[3,3-dimethyl-1-(2H-tetraazol-5-yl)butyl]amine] | 32.1 |
| CC(C)CCC(Nc1cncc2ccccc12)c1nn[nH]n1 (racemic) [Example 64, [4-methyl-1-(2H-tetraazol-5-yl)pentyl]-4-isoquinolylamine] | 8.71 |
| CC(C)CC(Nc1ncccn1)c1nn[nH]n1 (racemic) [Example 65, [3-methyl-1-(2H-tetraazol-5-yl)butyl]-2-pyrimidinylamine] | 98.6 |

| Compound | Kd [µM] |
| --- | --- |
| CC(C)CC(Nc1ccccn1)c1nn[nH]n1 (racemic) [Example 66, [3-methyl-1-(2H-tetraazol-5-yl)butyl]-2-pyridylamine] | 179 |
| CC(C)(C)CC(Nc1ncnc2ccccc12)c1nn[nH]n1 (racemic) [Example 77, [3,3-dimethyl-1-(2H-tetraazol-5-yl)butyl]-4-quinazolinylamine] | 5.41 |
| COc1ccc2ncnc(NC(CCC(C)(C)C)c3nn[nH]n3)c2c1 (racemic) [Example 78, [4,4-dimethyl-1-(2H-tetraazol-5-yl)pentyl](6-methoxy-4-quinazolinyl)amine] | 1.49 |
| COc1ccc2ncnc(NC(CCC(C)C)c3nn[nH]n3)c2c1 (racemic) [Example 79, [4-methyl-1-(2H-tetraazol-5-yl)pentyl](6-methoxy-4-quinazolinyl)amine] | 19.5 |
| Cc1ccc2ncnc(NC(CCC(C)C)c3nn[nH]n3)c2c1 (racemic) [Example 80, [4-methyl-1-(2H-tetraazol-5-yl)pentyl](6-methyl-4-quinazolinyl)amine] | 3.88 |
| CC(C)CCC(Nc1ncnc2ccc(F)cc12)c1nn[nH]n1 (racemic) [Example 81, [4-methyl-1-(2H-tetraazol-5-yl)pentyl](6-fluoro-4-quinazolinyl)amine] | 2.22 |
| CC(C)(C)CCC(Nc1ncnc2cc(F)ccc12)c1nn[nH]n1 (racemic) [Example 82, [4,4-dimethyl-1-(2H-tetraazol-5-yl)pentyl](7-fluoro-4-quinazolinyl)amine] | 0.316 |
| Cc1ccc2ncnc(NC(CCC(C)(C)C)c3nn[nH]n3)c2c1 (racemic) [Example 83, [4,4-dimethyl-1-(2H-tetraazol-5-yl)pentyl](6-methyl-4-quinazolinyl)amine] | 0.251 |
| Cc1ccc2c(NC(CCC(C)(C)C)c3nn[nH]n3)ncnc2c1 (racemic) [Example 84, [4,4-dimethyl-1-(2H-tetraazol-5-yl)pentyl](7-methyl-4-quinazolinyl)amine] | 0.461 |
| CC(C)(C)CCC(Nc1ncnc2ccc(C(F)(F)F)cc12)c1nn[nH]n1 (racemic) [Example 86, [4,4-dimethyl-1-(2H-tetraazol-5-yl)pentyl][6-(trifluoromethyl)-4-quinazolinyl]amine] | 1.49 |
| CC(C)(C)CCC(Nc1ncnc2cnccc12)c1nn[nH]n1 (racemic) [Example 88, [4,4-dimethyl-1-(2H-tetraazol-5-yl)pentyl]-1,3,7-triaza-4-naphthylamine] | 0.426 |
| CC(C)(C)CCC(Nc1ncnc2cc(Br)ccc12)c1nn[nH]n1 (racemic) [Example 90, [4,4-dimethyl-1-(2H-tetraazol-5-yl)pentyl](7-bromo-4-quinazolinyl)amine] | 0.284 |
| CC(C)CCC(Nc1ncnc2ccccc12)c1nnn[nH]1 (racemic) [Example 101, N-(4-methyl-1-(1H-tetrazol-5-yl)pentyl)quinazolin-4-amine] | 18.3 |
| CC(C)CC(Nc1ncnc2ccccc12)c1nn[nH]n1 (racemic) [Example 103, [3-methyl-1-(2H-tetraazol-5-yl)butyl]-4-quinazolinylamine] | 25.5 |
| CC(C)CC(Nc1ccncc1)c1nnn[nH]1 (racemic) [Example 104, N-(3-methyl-1-(1H-tetrazol-5-yl)butyl)pyridin-4-amine] | 74.2 |
| CC(C)CC(Nc1ccncn1)c1nn[nH]n1 (racemic) [Example 105, [3-methyl-1-(2H-tetraazol-5-yl)butyl]-4-pyrimidinylamine] | 187 |
| CC(C)(C)CC[C@@H](Nc1ccc2ccccc2n1)c1nn[nH]n1 (single isomer, unassigned) [Example 95] | 6.07 |
| CC(C)(C)CC[C@H](Nc1ccc2ccccc2n1)c1nn[nH]n1 (single isomer, unassigned) [Example 96] | 0.912 |
| CC(C)(C)CC[C@H](Nc1cccnc1)c1nn[nH]n1 (single isomer, unassigned) [Example 99] | 1.56 |
| CC(C)(C)CC[C@@H](Nc1cccnc1)c1nn[nH]n1 (single isomer, unassigned) [Example 100] | 6.22 |
| CC(C)(C)CC[C@H](Nc1cncc2ccccc12)C(=O)O [Example 29, (S)-2-(isoquinolin-4-ylamino)-5,5-dimethylhexanoic acid] | 0.0578 |
| N-phenyl[4,4-dimethyl-1-(2H-tetraazol-5-yl)pentyl]amine [Example 39] | 2.84 |
